Where “and” joins values, the source holds several entries; their conditions need not be identical. Equal values may be shown once.
Legend:
Assay type in all cases: cell-based, human
MCF-7/Ac1 cells [1] = assay: Cell growth by cell counting, AD-stimulated cells; conditions: 3 days
Procedure: Cell growth. The effects of the aromatase inhibitors on MCF7/Ac1 cells growth were examined by counting the cells at the indicated time. The cells were detached from their flask using trypsin and counted using a Coulter counter machine.
To examine the effects of the three different aromatase inhibitors on the proliferation of MCF-7/Ac1 cells, cells were cultured in estrogen deprived, charcoal stripped serum media (CSSM). The response of the cells to 25 nM of androstenedione (AD) alone or AD plus one of the 3 aromatase inhibitors letrozole (FIG. 22A), anastrozole (FIG. 22B), and exemestane (FIG. 22C) was measured after 3 days of treatment. Cells maintained in CSSM were used as controls.
FIGS. 22A-22C show the effect of aromatase inhibitor treatment on proliferative response and cell cycle distribution of MCF-7/Ac1 cells. Cells were cultured in IMEM with 10% charcoal-stripped serum medium (CSSM) without phenol red and with 600 μg/ml of G418 for 4 days before plating. Cells (100,000) were seeded in 100 mm dishes and, 24 hrs later, were exposed for 3 days to the specific treatment. […] CSSM, untreated cells cultured in charcoal-stripped serum medium without phenol red and with 600 μg/ml of G418.

MCF-7/Ac1 cells [2] = assay: Cell cycle analysis by flow cytometry (PI)
Procedure: Cell cycle analysis. MCF-7/Ac1 cells were cultured in estrogen-deprived media with or without 25 nM 4-androstenedione, and treated with different concentrations of aromatase inhibitors. Untreated and drug treated cells were collected 72 hours later for flow cytometry and lysates were prepared for western blot and kinase assays.
Flow cytometry analysis. Cells were pelleted and resuspended in 1.5 ml of PBS, then fixed in 3.5 ml of 95% ethanol overnight at −20° C. After being washed, the pellets were resuspended in a solution of PBS containing 10 μg/ml propidium iodide, 20 μg/ml RNase A, 0.5% Tween 20, and 0.5% BSA and incubated at 37° C. for 30 min. The profiles of cells in the G0-G1, S, and G2-M phases of the cell cycle were analyzed at the M. D. Anderson Cancer Center Cytometry Core Facility on a FACS Caliber machine equipped with Cellquest or ModFit software.
FIGS. 22A-22C show the effect of aromatase inhibitor treatment on proliferative response and cell cycle distribution of MCF-7/Ac1 cells. Cells were cultured in IMEM with 10% charcoal-stripped serum medium (CSSM) without phenol red and with 600 μg/ml of G418 for 4 days before plating. Cells (100,000) were seeded in 100 mm dishes and, 24 hrs later, were exposed for 3 days to the specific treatment. […] Cell growth is expressed as the percentage of the cells compared with the control cells (25 nM AD treated cells, 575,000 cells at day 3). Columns, mean of two to three experiments, each in triplicates; bars, S.D. *, P<0.05, when compared to cells only treated with 25 nM AD; n.s, not significant. CSSM, untreated cells cultured in charcoal-stripped serum medium without phenol red and with 600 μg/ml of G418.

[3] = system: cyclin E-associated kinase activity in MCF-7/Ac1 cells; assay: Cyclin E-associated kinase assay (histone H1); conditions: 25 nM AD, 3 days
Procedure: (§1) Immunoprecipitation and Immunoblotting. Two hundred fifty μg of cell extracts were used per immunoprecipitation with polyclonal antibody to cyclin E or polyclonal antibody to CDK2, coupled to protein A beads. After being washed, the immunoprecipitates were subjected to electrophoresis in 13% gels, transferred to Immobolin P, blocked, and incubated with the indicated antibodies as already described.
(§2) MCF-7/Ac1 cells were treated with the indicated concentrations of letrozole and AD for 3 days. Cyclin E kinase assays were performed by immunoprecipitating equal amounts of cell lysate (250 μg) with monoclonal antibodies to cyclin E coupled to protein A beads, using histone H1 as substrate. […] The same cell lysates were subjected to western blot analysis (50 μg of protein) with the indicated antibodies. […] The same cell lysates were first immunoprecipitated with cyclin E followed by western blot for p21 and p27. […] The same cell lysates were first immunoprecipitated with CDK2 followed by western blot for p21 and p27. The levels of proteins were measured by densitometric scanning of the corresponding bands and normalized using actin values. The values indicated at the bottom were compared to the values obtained with untreated cells.

MCF-7/Ac1 cells [4] = assay: Western blot of CDK2, phospho-CDK2, cyclin E, pRb; conditions: 25 nM AD
Procedure: FIG. 28. Effect of increasing concentrations of letrozole in the presence of 25 nM AD on CDK2 kinase activity, activated CDK2 and Rb phosphorylation of MCF7/Ac1 human breast cancer cells. MCF-7/Ac1 cells were treated with the indicated concentrations of letrozole and AD for 3 days. CDK2 kinase assays were performed by immunoprecipitating equal amounts of cell lysate (250 μg) with monoclonal antibodies to CDK2 (D12, sc-6248) coupled to protein G beads, using histone H1 as substrate. […] The same cell lysates were subjected to western blot analysis (50 μg of protein) with the indicated antibodies.
(§3) Western blot analysis. Cell lysates were prepared and subjected to western blot analysis as described previously (Akli et al., 2004). Briefly, 50 μg of protein were subjected to electrophoresis on SDS-PAGE and transferred to Immobilon P overnight at 4° C. at […] constant voltage. The blots were blocked overnight at 4° C. in BLOTTO [5% nonfat dried milk in 20 mM Tris, 137 mM NaCl, and 0.05% Tween (pH 7.6)]. After being washed, the blots were incubated in primary antibodies for 3 h. Primary antibodies used were cyclin E (HE-12; Santa Cruz Biotechnology), p21 (0P64; Oncogene Research Products, Boston, Mass.), p27 (K25020; BD Biosciences-Transduction Laboratories, Lexington, Ky.), cyclin-dependent kinase 2 (CDK2; Transduction Laboratories), and actin (Chemicon International, Inc., Temecula, Calif.). Blots were then incubated with goat anti-mouse or anti-rabbit immunoglobulin-horseradish peroxidase conjugate at a dilution of 1:5000 in BLOTTO for 1 h and finally washed and developed by using the Renaissance chemiluminescence system as directed by the manufacturer (Perkin-Elmer Life Sciences, Inc., Boston, Mass.). Western blots were quantitated by densitometric analysis using IPLab Gel software (Scientific Image Processing, Vienna, Va.). Densitometric values of actin were used to standardize for equal protein loading. These values were introduced into the software Graph-Pad Prism version 4.0 (GraphPad Software, Inc., San Diego, Calif.) for statistical analysis.
as §2

[5] = system: cyclin E and CDK2 complexes in MCF-7/Ac1 cells; assay: Immunoprecipitation of cyclin E or CDK2 followed by western blot for p21 and p27; conditions: 25 nM AD
Procedure: as §1, §2

[6] = system: CDK2 protein in MCF-7/Ac1 cells; assay: Western blot of CDK2 protein levels in adenovirus-infected cells; conditions: 25 nM AD, uninfected and LacZ infected cells
Procedure: as §3
MCF-7/Ac1 cells were cultured in IMEM with 10% charcoal-stripped serum medium (CSSM) without phenol red and with 600 μg/ml of G418 for 4 days before plating. […] Cells were then infected with the indicated adenoviruses (at 4000 m.o.i.) 24 hours before drug treatment.

MCF-7/Ac1 cells [7] = assay: Sequential AD/letrozole then roscovitine treatment: cell number and CDK2 western blot; conditions: additional two days in medium or medium plus DMSO
Procedure: Medium alone or medium plus DMSO were used as controls. A schematic of the treatment strategy is depicted in FIG. 25A. At the conclusion of the treatment, cells were enumerated and subjected to western blot analysis with CDK2 (total) and phospho-CDK2 antibodies.
Cells were then infected with the indicated adenoviruses (at 4000 m.o.i.) 24 hours before drug treatment.

BT474 cells = assay: High throughput clonogenic assay, trastuzumab and roscovitine; conditions: agents alone or in combination
Procedure: (§4) FIGS. 27A-27B. […] FIG. 27B. […] Isobologram analysis and graphs were obtained using CalcuSyn software, which performs drug dose—effect calculation using the median effect method. Experiments were performed in triplicate and representative data are shown.

SKBr3 cells = assay: as above; conditions: agents alone or in combination
Procedure: as §4

MCF-7/Ac1 cells [8] = assay: Cell number of adenovirus-infected cells (LacZ, cyclin EL, T1, T2); conditions: 20 uM, uninfected, LacZ or cyclin E-T1 infected cells
Source text: LMW cyclin E, but not full-length cyclin E, overexpressing MCF-7/Ac1 cells partially override the letrozole inhibition of AD-induced S-phase entry and AD-induced CDK2 protein levels. Since overexpression of LMW cyclin E deregulates the G1 to S transition, the inventors interrogated the role of full-length and LMW cyclin E in letrozole response. To this end, the inventors examined the sensitivity of cyclin E overexpressing MCF-7/Ac1 cells to the growth inhibitory effect of letrozole using adenoviruses to overexpress full-length and LMW cyclin E (FIGS. 24A-24D). MCF-7/Ac1 cells were cultured in charcoal stripped serum media (CSSM) for 4 days before infecting them with 4000 m.o.i. of either LacZ, full-length cyclin E (cyclin EL) or LMW cyclin E (cyclin E-T1 and cyclin E-T2). Twenty-four hours later, cells were left either untreated, treated with 25 nM AD alone, or treated with 25 nM AD plus 1 μM letrozole for an additional 3 days (FIGS. 24A-24B). Following the treatment, cells were enumerated or subjected to flow cytometry analysis.
MCF-7/Ac1 cells were cultured in IMEM with 10% charcoal-stripped serum medium (CSSM) without phenol red and with 600 μg/ml of G418 for 4 days before plating. Triplicate wells of 6-well plates were then infected with the indicated adenoviruses (at 4000 m.o.i.) 24 hours before drug treatment. Cells were then left untreated (E2W, estrogen withdrawal) or treated with 25 nM AD (AD) or treated with 25 nM AD and 1 μM letrozole (AD+Let) and collected 3 days later for cell number. Cell growth is expressed as the percentage of the cells compared with the control cells (25 nM AD treated cells). […] MCF-7/Ac1 cells were treated as described in A, and collected for flow cytometry analysis. Histograms represent the S-phase fraction expressed as the percentage of the cells in S-phase compared with the control cells (25 nM AD treated cells). […] The same cell lysates as in A and B were subjected to western blot analysis (50 μg of protein) with cyclin E and CDK2 antibodies. The bar graph represents the densitometric values of the phosphorylated CDK2 bands. […] Left, MCF-7/Ac1 cells were cultured in IMEM with 10% charcoal-stripped serum medium (CSSM) without phenol red and with 600 μg/ml of G418 for 4 days before plating. Cells were then infected with the indicated adenoviruses (at 4000 m.o.i.) 24 hours before drug treatment. Cells were then treated with 25 nM AD and 1 μM letrozole and collected 3 days later for cell number. […] Columns, mean of two to three experiments, each in triplicates; bars, S.D.
To directly address this question, MCF-7/Ac1 cells were cultured in charcoal stripped serum media (CSSM) for 4 days before adding medium with no virus or with 4000 m.o.i. of either LacZ, or LMW cyclin E (cyclin E-T1) adenoviruses. 24 hours later, cells were left untreated, treated with 25 nM AD alone, or treated with 25 nM AD plus 1 μM letrozole for 3 days (FIG. 24D). The AD-induced growth of MCF-7/Ac1 cells was inhibited by letrozole by 51% in uninfected cells and by 58% in LacZ infected cells while the growth of cyclin E-T1 infected cells was inhibited by only 20% (FIG. 24D, left).

SMILES: C[C@]12CCC(=O)C=C1CC[C@@H]1[C@@H]2CC[C@]2(C)C(=O)CC[C@@H]12 [AD, androstenedione]
- increase in cell number compared to control cells (CSSM) (MCF-7/Ac1 cells [1]; 25 nM AD): 3.9+/−1.3 fold
- fraction of cells in S phase (MCF-7/Ac1 cells [2]; 25 nM AD alone): 40.3+/−1.9%
- increase of fraction of cells in S phase compared to vehicle treated cells (MCF-7/Ac1 cells [2]; 25 nM AD alone): 7.3 fold
- cells in G0-G1 (MCF-7/Ac1 cells [2]; 25 nM AD alone (baseline of exemestane comparison)): 35.1+/−0.8%
- increase in cyclin E-associated kinase activity compared to vehicle treated cells [3]: 1.6 fold
- cyclin E protein levels (MCF-7/Ac1 cells [4]): not affected
- increase in CDK2 protein levels compared to vehicle treated cells (MCF-7/Ac1 cells [4]; 3 days): 2.3 fold
- increase in phospho-CDK2 (MCF-7/Ac1 cells [4]; phospho-specific CDK2 antibody): 3.5 fold
- increase in p21 binding to CDK2 [5]: 1.5 fold
- p21 binding to cyclin E [5]: did not affect
- increase in total CDK2 protein levels [6]: 1.8 fold
- increase in AD-induced proliferation (MCF-7/Ac1 cells [7]; LMW cyclin E overexpressing cells): 2.3 fold and 2.8 fold
- increase in AD-induced proliferation (MCF-7/Ac1 cells [7]; LacZ infected cells): 3.5 fold
- increase in AD-induced proliferation (MCF-7/Ac1 cells [7]; uninfected cells): 4 fold

SMILES: CC(C)(C#N)c1cc(Cn2cncn2)cc(C(C)(C)C#N)c1 [anastrozole]
- inhibition of AD-induced growth (MCF-7/Ac1 cells [1]; any of the concentrations tested, with 25 nM AD): did not inhibit
- effect on cell cycle distribution (MCF-7/Ac1 cells [2]; 10 μM, with 25 nM AD): more subtle effect

SMILES: C=C1C[C@@H]2[C@H](CC[C@]3(C)C(=O)CC[C@@H]23)[C@@]2(C)C=CC(=O)C=C12 [exemestane]
- inhibition at 1 µM (MCF-7/Ac1 cells [1]; Homo sapiens, MCF7, 72 h, 1 μM, with 25 nM AD, read-out: inhibition of AD-induced growth): 25%
- inhibition at 10 µM (MCF-7/Ac1 cells [1]; Homo sapiens, MCF7, 72 h, 10 μM, with 25 nM AD, read-out: inhibition of AD-induced growth): 42%
- cells in G0-G1 (MCF-7/Ac1 cells [2]; 10 μM, with 25 nM AD): 49.2+/−0.7%
- cells in S phase (MCF-7/Ac1 cells [2]; 10 μM, with 25 nM AD): 31.7+/−2.5%

SMILES: CC[C@H](CO)Nc1nc(NCc2ccccc2)c2ncn(C(C)C)c2n1 [roscovitine]
- cell viability (BT474 cells): dose-dependent reduction in cell viability
- cell viability (SKBr3 cells): dose-dependent reduction in cell viability
- inhibition of AD-induced increase in cell number (MCF-7/Ac1 cells [8]): completely inhibited
